Laboratory results taken from ChEMBL document CHEMBL3400086, “Thieno[2,3-b]pyridines as negative allosteric modulators of metabotropic GluR5 receptors: Lead optimization” (Bioorg Med Chem Lett, 2015).

Legend:
[1] = target: T1, Metabotropic glutamate receptor 5 (Rattus norvegicus, UniProt P31424); experiment: Displacement of [3H]-M-MPEP from rat cerebrocortical mGluR5 receptor
[2] = system: Liver microsome; experiment: Intrinsic clearance in human liver microsomes measured per gram of tissue at 2.5 uM; format: ADME
[3] = system: Liver microsome; experiment: Intrinsic clearance in Wistar rat liver microsomes measured per gram of tissue at 2.5 uM; format: ADME
[4] = target: T1, Metabotropic glutamate receptor 5; experiment: Negative allosteric modulation of mGlu5 receptor in primary E17 rat embryo neuron assessed as ca2+ level by fluo-4/AM assay

T1 sequence (P31424 whole entry): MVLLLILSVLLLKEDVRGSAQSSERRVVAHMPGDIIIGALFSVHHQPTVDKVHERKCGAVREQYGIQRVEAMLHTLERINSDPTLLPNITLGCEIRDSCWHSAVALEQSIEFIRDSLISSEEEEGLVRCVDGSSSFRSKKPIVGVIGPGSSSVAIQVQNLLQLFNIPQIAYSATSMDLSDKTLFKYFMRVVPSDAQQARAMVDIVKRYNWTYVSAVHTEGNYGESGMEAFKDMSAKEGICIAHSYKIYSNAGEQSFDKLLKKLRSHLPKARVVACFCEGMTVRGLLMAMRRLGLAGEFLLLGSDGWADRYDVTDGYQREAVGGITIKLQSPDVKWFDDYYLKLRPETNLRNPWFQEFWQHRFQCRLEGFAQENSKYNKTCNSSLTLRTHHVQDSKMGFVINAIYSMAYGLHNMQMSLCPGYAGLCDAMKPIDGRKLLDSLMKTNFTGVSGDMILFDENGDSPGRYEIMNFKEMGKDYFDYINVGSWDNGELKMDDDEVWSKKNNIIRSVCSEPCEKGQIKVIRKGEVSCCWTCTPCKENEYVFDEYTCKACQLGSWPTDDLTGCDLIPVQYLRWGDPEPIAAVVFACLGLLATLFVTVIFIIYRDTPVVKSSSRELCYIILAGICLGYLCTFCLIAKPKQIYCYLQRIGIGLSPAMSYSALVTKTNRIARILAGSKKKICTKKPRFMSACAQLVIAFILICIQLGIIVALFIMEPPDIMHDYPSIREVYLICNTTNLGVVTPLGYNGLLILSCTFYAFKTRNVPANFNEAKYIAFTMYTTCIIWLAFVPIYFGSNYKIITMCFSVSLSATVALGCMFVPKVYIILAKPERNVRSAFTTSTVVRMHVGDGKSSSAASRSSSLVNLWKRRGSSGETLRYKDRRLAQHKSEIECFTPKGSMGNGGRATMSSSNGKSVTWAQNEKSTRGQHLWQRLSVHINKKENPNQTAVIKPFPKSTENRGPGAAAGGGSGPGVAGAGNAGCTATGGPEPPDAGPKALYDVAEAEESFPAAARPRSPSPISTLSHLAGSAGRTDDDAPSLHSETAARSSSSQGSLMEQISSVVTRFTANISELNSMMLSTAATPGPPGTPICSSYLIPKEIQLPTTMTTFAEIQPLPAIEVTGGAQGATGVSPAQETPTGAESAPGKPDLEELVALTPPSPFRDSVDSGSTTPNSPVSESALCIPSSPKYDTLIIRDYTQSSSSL

SMILES	Ki [1]	CLH [2]	CLH [3]	IC50 [4]
O=S(=O)(c1ccc(Cl)cc1)c1sc2ncccc2c1-c1ccc(F)cc1F	27 nM	3.3 mL/min/g	11.1 mL/min/g	–
COc1cccc(S(=O)(=O)c2sc3ncccc3c2-c2ccc(Cl)cc2)c1	9.5 nM	–	–	–
N#Cc1ccc(S(=O)(=O)c2sc3ncccc3c2-c2ccc(Cl)cc2)cc1	36 nM	–	–	–
COc1ccc(S(=O)(=O)c2sc3ncccc3c2-c2ccc(Cl)cc2)cc1F	7.9 nM	–	–	–
N#Cc1cc(F)cc(S(=O)(=O)c2sc3ncccc3c2-c2cccc(F)c2)c1	2.2 nM	1.5 mL/min/g	2.4 mL/min/g	2.4 nM
Cc1ccc(S(=O)(=O)c2sc3ncccc3c2-c2ccc(Cl)cc2)cc1Cl	6.8 nM	–	–	–
O=S(=O)(c1cc(F)cc(F)c1)c1sc2ncccc2c1-c1ccc(Cl)cc1	36 nM	–	–	–
Cc1ccc(S(=O)(=O)c2sc3ncccc3c2-c2ccc(Cl)cc2)cc1	15.4 nM	–	–	–
Nc1ccnc2sc(S(=O)(=O)c3ccc(Cl)cc3)c(-c3ccc(Cl)cc3)c12	14.8 nM	2.9 mL/min/g	10.1 mL/min/g	–
N#Cc1cc(F)cc(S(=O)(=O)c2sc3ncc(N)cc3c2-c2cnccc2Cl)c1	9.3 nM	1.1 mL/min/g	1 mL/min/g	34 nM
Nc1cnc2sc(S(=O)(=O)c3ccc(Cl)cc3)c(-c3ccccc3F)c2c1	58 nM	1.9 mL/min/g	2.8 mL/min/g	–
Cc1cccc(-c2c(S(=O)(=O)c3cccc(C#N)c3)sc3ncccc23)c1	14.2 nM	3.3 mL/min/g	17.7 mL/min/g	44 nM
Cc1ccc(S(=O)(=O)c2sc3ncccc3c2-c2ccc(Cl)cc2)cc1C	3.3 nM	–	–	–
O=S(=O)(c1ccc(Cl)cc1)c1sc2ncccc2c1-c1cccc(Cl)c1	37 nM	1.3 mL/min/g	2.8 mL/min/g	–
N#Cc1cccc(S(=O)(=O)c2sc3ncccc3c2-c2cccc(Cl)c2)c1	14.3 nM	2.6 mL/min/g	10.8 mL/min/g	45 nM
Cc1ccc(-c2c(S(=O)(=O)c3ccc(Cl)cc3)sc3ncccc23)cc1	21 nM	3.9 mL/min/g	15.7 mL/min/g	111 nM
N#Cc1cccc(S(=O)(=O)c2sc3nc(F)ccc3c2-c2ccc(Cl)cc2)c1	8.3 nM	1 mL/min/g	1.4 mL/min/g	48 nM
O=S(=O)(c1ccc(Cl)cc1Cl)c1sc2ncccc2c1-c1ccc(Cl)cc1	105 nM	–	–	–
O=S(=O)(c1ccc(Cl)cc1)c1sc2nc(Cl)ccc2c1-c1ccc(Cl)cc1	93 nM	0.01 mL/min/g	3.4 mL/min/g	1030 nM
O=S(=O)(c1ccc(Cl)cc1)c1sc2nccc(F)c2c1-c1ccc(Cl)cc1	214 nM	3.6 mL/min/g	12.1 mL/min/g	–
O=S(=O)(c1cccc(C(F)(F)F)c1)c1sc2ncccc2c1-c1ccc(Cl)cc1	54 nM	–	–	–

SMILES	Ki [1]	CLH [2]	CLH [3]	IC50 [4]
N#Cc1cc(F)cc(S(=O)(=O)c2sc3ncccc3c2-c2ccc(F)cc2)c1	2.4 nM	2.1 mL/min/g	2.1 mL/min/g	10.6 nM
O=S(=O)(c1ccc(Cl)cc1)c1sc2ncccc2c1-c1cccc(F)c1	38 nM	2.3 mL/min/g	4.1 mL/min/g	123 nM
O=S(=O)(c1ccc(Cl)cc1)c1sc2ncc(F)cc2c1-c1ccc(Cl)cc1	124 nM	0.3 mL/min/g	1.7 mL/min/g	–
N#Cc1cc(F)cc(S(=O)(=O)c2sc3ncc(N)cc3c2-c2ccncc2F)c1	44 nM	0.3 mL/min/g	0.5 mL/min/g	44 nM
N#Cc1cccc(S(=O)(=O)c2sc3ncccc3c2-c2cccc(F)c2)c1	4.8 nM	1.9 mL/min/g	13.9 mL/min/g	–
CN(C)c1ccnc2sc(S(=O)(=O)c3ccc(Cl)cc3)c(-c3ccc(Cl)cc3)c12	26 nM	3.8 mL/min/g	9.5 mL/min/g	–
N#Cc1cc(F)cc(S(=O)(=O)c2sc3ncccc3c2-c2cnccc2F)c1	13.6 nM	0.9 mL/min/g	1 mL/min/g	22 nM
O=S(=O)(c1ccc(Cl)cc1)c1sc2ncccc2c1-c1ccc(Cl)c(Cl)c1	31 nM	2.5 mL/min/g	9.7 mL/min/g	–
N#Cc1cccc(S(=O)(=O)c2sc3ncc(N)cc3c2-c2ccc(F)cc2)c1	8.8 nM	1.3 mL/min/g	3.8 mL/min/g	–
N#Cc1cccc(S(=O)(=O)c2sc3ncc(N)cc3c2-c2ccccc2F)c1	1.8 nM	0.6 mL/min/g	2.5 mL/min/g	–
O=S(=O)(c1cc(F)cc(C(F)(F)F)c1)c1sc2ncccc2c1-c1ccc(Cl)cc1	41 nM	–	–	–
N#Cc1cccc(S(=O)(=O)c2sc3ncc(N)cc3c2-c2cccc(F)c2)c1	4.2 nM	0.01 mL/min/g	0.01 mL/min/g	–
N#Cc1cc(F)cc(S(=O)(=O)c2sc3ncccc3c2-c2ccoc2)c1	13 nM	3.7 mL/min/g	4.3 mL/min/g	–
O=C(Nc1cccc(Cl)c1)O/N=C1\CCCCC1Cc1cccs1 (stereo unspecified)	9.1 nM	–	–	–
O=S(=O)(c1cccc(F)c1)c1sc2ncccc2c1-c1ccc(Cl)cc1	43 nM	–	–	–
CC(C)c1ccc(S(=O)(=O)c2sc3ncccc3c2-c2ccc(Cl)cc2)cc1	66 nM	–	–	–
Cc1ccc(-c2c(S(=O)(=O)c3cccc(C#N)c3)sc3ncccc23)cc1	3 nM	3.3 mL/min/g	17.3 mL/min/g	–
N#Cc1cccc(S(=O)(=O)c2sc3ncccc3c2-c2ccccc2Cl)c1	3.5 nM	3.2 mL/min/g	11.2 mL/min/g	–
O=S(=O)(c1ccc(Cl)cc1)c1sc2ncccc2c1-c1cnccc1F	61 nM	2.6 mL/min/g	10.5 mL/min/g	–
Cc1ccc(S(=O)(=O)c2sc3ncccc3c2-c2ccc(Cl)cc2)cc1F	11.8 nM	–	–	–
O=S(=O)(c1ccc(F)cc1)c1sc2ncccc2c1-c1ccc(Cl)cc1	15.6 nM	–	–	–

SMILES	Ki [1]	CLH [2]	CLH [3]	IC50 [4]
N#Cc1cc(F)cc(S(=O)(=O)c2sc3ncc(N)cc3c2-c2ccncc2Cl)c1	44 nM	1 mL/min/g	0.7 mL/min/g	–
CN(C)c1ccc(S(=O)(=O)c2sc3ncccc3c2-c2ccc(Cl)cc2)cc1	52 nM	–	–	–
O=S(=O)(c1ccccc1)c1sc2ncccc2c1-c1ccc(Cl)cc1	96 nM	–	–	–
O=S(=O)(c1ccc(Cl)c(Cl)c1)c1sc2ncccc2c1-c1ccc(Cl)cc1	10.7 nM	–	–	–
COc1ccc2c(-c3ccc(Cl)cc3)c(S(=O)(=O)c3ccc(Cl)cc3)sc2n1	652 nM	0.01 mL/min/g	2.6 mL/min/g	–
N#Cc1cc(F)cc(S(=O)(=O)c2sc3ncc(N)cc3c2-c2c(F)cncc2F)c1	19 nM	0.4 mL/min/g	0.8 mL/min/g	–
COc1ccc(S(=O)(=O)c2sc3ncccc3c2-c2ccc(Cl)cc2)cc1	20 nM	–	–	–
N#Cc1cc(F)cc(S(=O)(=O)c2sc3nc(Cl)ccc3c2-c2ccc(F)cc2)c1	20 nM	0.6 mL/min/g	2.1 mL/min/g	–
N#Cc1cc(F)cc(S(=O)(=O)c2sc3ncc(N)cc3c2-c2cccc(Cl)c2)c1	–	0.9 mL/min/g	1.5 mL/min/g	38 nM
N#Cc1cccc(S(=O)(=O)c2sc3ncc(N)cc3c2-c2cccc(Cl)c2)c1	14.3 nM	0.01 mL/min/g	0.01 mL/min/g	–
N#Cc1cccc(S(=O)(=O)c2sc3ncccc3c2-c2ccc(F)cc2)c1	4.5 nM	2.1 mL/min/g	9.6 mL/min/g	–
O=S(=O)(c1cccnc1)c1sc2ncccc2c1-c1ccc(Cl)cc1	289 nM	–	–	–
Cc1cccc(S(=O)(=O)c2sc3ncccc3c2-c2ccc(Cl)cc2)c1	9.3 nM	–	–	–
O=S(=O)(c1ccc(C(F)(F)F)cc1)c1sc2ncccc2c1-c1ccc(Cl)cc1	272 nM	–	–	–
CS(=O)(=O)Nc1cnc2sc(S(=O)(=O)c3ccc(Cl)cc3)c(-c3ccc(Cl)cc3)c2c1	166 nM	0.4 mL/min/g	1.1 mL/min/g	–
COc1ccc(-c2c(S(=O)(=O)c3cccc(C#N)c3)sc3ncccc23)cc1	23 nM	2.7 mL/min/g	13.5 mL/min/g	–
N#Cc1cccc(S(=O)(=O)c2sc3ncc(N)cc3c2-c2ccc(Cl)cc2)c1	9 nM	1.6 mL/min/g	0.4 mL/min/g	–
Cc1cc(C)cc(S(=O)(=O)c2sc3ncccc3c2-c2ccc(Cl)cc2)c1	24 nM	–	–	–
O=S(=O)(c1cccc(Cl)c1)c1sc2ncccc2c1-c1ccc(Cl)cc1	15.9 nM	–	–	–
